The source of these data is US20250171423A1, “PHARMACEUTICAL COMPOUNDS FOR THE TREATMENT OF COMPLEMENT MEDIATED DISORDERS” (Achillion Pharmaceuticals, Inc., priority 2020, published 2025).

For this assay, the target named is T1, Human complement C1s enzyme (Homo sapiens, UniProt P09871).
T1 construct: purified from human serum, Complement Technology, Inc; purchased Complement Technology, Inc; host or cells: human serum
T1 sequence (P09871 438-688 limits assumed): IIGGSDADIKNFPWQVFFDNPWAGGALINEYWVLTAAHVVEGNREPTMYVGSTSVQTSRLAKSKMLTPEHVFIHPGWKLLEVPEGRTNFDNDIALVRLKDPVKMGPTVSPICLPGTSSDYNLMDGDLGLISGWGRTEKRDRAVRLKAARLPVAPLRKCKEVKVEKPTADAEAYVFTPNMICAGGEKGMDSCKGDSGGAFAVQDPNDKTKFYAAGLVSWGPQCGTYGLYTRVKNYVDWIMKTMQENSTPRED
T1 sequence (P09871 16-437 partner limits assumed): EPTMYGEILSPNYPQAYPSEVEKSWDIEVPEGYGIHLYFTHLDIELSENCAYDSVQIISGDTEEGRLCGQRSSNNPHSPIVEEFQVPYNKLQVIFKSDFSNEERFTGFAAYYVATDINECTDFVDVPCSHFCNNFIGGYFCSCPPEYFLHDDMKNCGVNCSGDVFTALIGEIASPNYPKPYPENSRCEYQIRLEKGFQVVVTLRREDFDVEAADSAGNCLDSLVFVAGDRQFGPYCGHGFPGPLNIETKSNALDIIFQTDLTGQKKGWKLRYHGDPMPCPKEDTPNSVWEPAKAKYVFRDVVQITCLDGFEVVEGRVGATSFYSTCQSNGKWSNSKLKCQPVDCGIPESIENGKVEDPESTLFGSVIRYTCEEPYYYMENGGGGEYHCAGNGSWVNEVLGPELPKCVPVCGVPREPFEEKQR
The experiment in a line: Human C1s Enzyme Assay. As to conditions: human C1s 1.16 nM, 5 min preincubation, substrate Z-L-Lys-SBzl 100 μM, A405; read-out: C1s Protease Activity. In kind it is biochemical. How it is done: The assay of Example 3 was used to determine the IC50's of the compounds. Other standard complement assays are also available.
Example 3. Human C1s Enzyme Assay
Human complement C1s enzyme (purified from human serum, Complement Technology, Inc.) at 1.16 nM final concentration was incubated with test compound at various concentrations for 5 min at room temperature in 50 mM Tris, 1 M NaCl, pH 7.5. A synthetic substrate Z-L-Lys-SBzl and DTNB (Ellman's reagent) were added to final concentrations of 100 μM each. Absorbance at 405 nm (A405) was recorded at 30 second intervals for 30 min using a microplate spectrophotometer. IC50 values were calculated by nonlinear regression of complement C1s reaction rates as a function of test compound concentration.
As to `COC[C@@]1(F)C[C@@H](C(=O)N[C@H](C)c2cc(C(=N)N)cs2)N(C(=O)CNC(=O)c2ccc(Oc3ccccc3)cc2)C1` [Compound 196, (2S,4R)-N-((R)-1-(4-carbamimidoylthiophen-2-yl)ethyl)-4-fluoro-4-(methoxymethyl)-1-((4-phenoxybenzoyl)glycyl)pyrrolidine-2-carboxamide], the IC50 is under 100 nM. Next, `C[C@@]12C[C@@H]1N(CCNC(=O)CCCOc1ccccc1)[C@H](C(=O)NCc1cc(C(=N)N)cs1)C2` [Compound 134, (1S,3S,5S)-N-((4-carbamimidoylthiophen-2-yl)methyl)-5-methyl-2-(2-(4-phenoxybutanamido)ethyl)-2-azabicyclo[3.1.0]hexane-3-carboxamide]: over 1000 nM; `Cc1ccc(OCCCC(=O)NCC(=O)N2CC3(C[C@H]2C(=O)NCc2cc(C(=N)N)cs2)OCCO3)cc1` [Compound 64, (S)-N-((4-carbamimidoylthiophen-2-yl)methyl)-7-((4-(p-tolyloxy)butanoyl)glycyl)-1,4-dioxa-7-azaspiro[4.4]nonane-8-carboxamide]: under 100 nM. In the case of `C[C@H](NC(=O)[C@@H]1C[C@]2(C)C[C@@H]2N1C(=O)CNC(=O)c1ccc(Oc2ccccc2)cc1)c1cc(-c2ncc[nH]2)cs1` [Compound 254, (1S,3S,5S)-N-((S)-1-(4-(1H-imidazol-2-yl)thiophen-2-yl)ethyl)-5-methyl-2-((4-phenoxybenzoyl)glycyl)-2-azabicyclo[3.1.0]hexane-3-carboxamide], the IC50 was over 1000 nM. Next, `CCOC(=O)c1ccc(OCCCC(=O)NCC(=O)N2[C@H]3C[C@@]3(C)C[C@H]2C(=O)NCc2cc(C(=N)N)cs2)cc1` [Compound 79, Ethyl 4-(4-((2-((1S,3S,5S)-3-(((4-carbamimidoylthiophen-2-yl)methyl)carbamoyl)-5-methyl-2-azabicyclo[3.1.0]hexan-2-yl)-2-oxoethyl)amino)-4-oxobutoxy)benzoate]: under 100 nM; `N=C(N)c1csc(CNC(=O)[C@@H]2C[C@@H](C3CCCC3)CN2C(=O)CNC(=O)c2ccc(Oc3ccccc3)cc2)c1` [Compound 54, (2S,4S)-N-((4-carbamimidoylthiophen-2-yl)methyl)-4-cyclopentyl-1-((4-phenoxy-benzoyl)glycyl)pyrrolidine-2-carboxamide]: under 100 nM. Take `N=C(N)c1csc(C(NC(=O)[C@@H]2C[C@@H](OC(F)F)CN2C(=O)CNC(=O)c2ccc(Oc3ccccc3)cc2)C(=O)O)c1` (stereo partly drawn) [Compound 190, 2-(4-carbamimidoylthiophen-2-yl)-2-((2S,4R)-4-(difluoromethoxy)-1-((4-phenoxybenzoyl)glycyl)pyrrolidine-2-carboxamido)acetic acid]: the IC50 is under 100 nM. For `CNC(=O)C(NC(=O)[C@@H]1C[C@@H](OC(F)F)CN1C(=O)CNC(=O)c1ccc(Oc2ccccc2)cc1)c1cc(C(=N)N)cs1` (stereo partly drawn) [Compound 210, (2S,4R)-N-(1-(4-carbamimidoylthiophen-2-yl)-2-(methylamino)-2-oxoethyl)-4-(difluoromethoxy)-1-((4-phenoxybenzoyl)glycyl)pyrrolidine-2-carboxamide], the IC50 is over 1000 nM. Take `C[C@@H](NC(=O)[C@@H]1CC2(CN1C(=O)CNC(=O)c1ccc(C(F)(F)F)cc1)OCCO2)c1cc(C(=N)N)cs1` [Compound 263, (S)-N-((R)-1-(4-carbamimidoylthiophen-2-yl)ethyl)-7-((4-(trifluoromethyl)benzoyl)glycyl)-1,4-dioxa-7-azaspiro[4.4]nonane-8-carboxamide]: the IC50 was under 100 nM. Consider `CC(C)[C@@H](NC(=O)[C@@H]1CC2(CN1C(=O)CNC(=O)CCCOc1ccccc1)OCCO2)c1cc(C(=N)N)cs1` [Compound 167, (S)-N-((R)-1-(4-carbamimidoylthiophen-2-yl)-2-methylpropyl)-7-((4-phenoxybutanoyl)glycyl)-1,4-dioxa-7-azaspiro[4.4]nonane-8-carboxamide], for which the IC50 was over 1000 nM. Take `N=C(N)c1csc([C@@H](NC(=O)[C@@H]2CC3(CN2C(=O)CNC(=O)CCCOc2ccccc2)OCCO3)C2CCCC2)c1` [Compound 179, (S)-N-((S)-(4-carbamimidoylthiophen-2-yl)(cyclopentyl)methyl)-7-((4-phenoxybutanoyl)glycyl)-1,4-dioxa-7-azaspiro[4.4]nonane-8-carboxamide]: the IC50 was over 1000 nM. Next, `C[C@@]12C[C@@H]1N(C(=O)CNC(=O)c1ccc(Oc3ccccc3)cc1)[C@H](C(=O)NCc1cc(/C(N)=N/S(C)(=O)=O)cs1)C2` [Compound 13, (1S,3S,5S)-5-methyl-N-((4-((Z)-N′-(methylsulfonyl)carbamimidoyl)thiophen-2-yl)-methyl)-2-((4-phenoxybenzoyl)glycyl)-2-azabicyclo[3.1.0]hexane-3-carboxamide]: over 1000 nM; `N=C(N)c1csc(CNC(=O)[C@@H]2CC3(CC3)CN2C(=O)CNC(=O)CCCOc2ccccc2)c1` [Compound 55, (S)-N-((4-carbamimidoylthiophen-2-yl)methyl)-5-((4-phenoxybutanoyl)glycyl)-5-azaspiro[2.4]heptane-6-carboxamide]: under 100 nM; `N=C(N)c1csc(CNC(=O)[C@@H]2CC3(CN2C(=O)CNC(=O)CCCOc2ccnc(F)c2)OCCO3)c1` [Compound 206, (S)-N-((4-carbamimidoylthiophen-2-yl)methyl)-7-((4-((2-fluoropyridin-4-yl)oxy)butanoyl)glycyl)-1,4-dioxa-7-azaspiro[4.4]nonane-8-carboxamide]: under 100 nM. The figure for `CO[C@H]1[C@@H](C(=O)NCc2cc(C(=N)N)cs2)N(C(=O)CNC(=O)CCCOc2ccccc2)C[C@@H]1F` [Compound 113, (2S,3S,4S)-N-((4-carbamimidoylthiophen-2-yl)methyl)-4-fluoro-3-methoxy-1-((4-phenoxybutanoyl)glycyl)pyrrolidine-2-carboxamide] is 100 to 1000 nM; for `N=C(N)c1csc([C@H](NC(=O)[C@@H]2CC3(CN2C(=O)CNC(=O)CCCOc2ccccc2)OCCO3)C2CC2)c1` [Compound 177, (S)-N-((R)-(4-carbamimidoylthiophen-2-yl)(cyclopropyl)methyl)-7-((4-phenoxybutanoyl)glycyl)-1,4-dioxa-7-azaspiro[4.4]nonane-8-carboxamide] it is over 1000 nM; for `C[C@@H](NC(=O)[C@@H]1C[C@@H](c2ccccc2)CN1C(=O)CNC(=O)c1ccc(Oc2ccccc2)cc1)c1cc(C(=N)N)cs1` [Compound 246, (2S,4S)-N-((R)-1-(4-carbamimidoylthiophen-2-yl)ethyl)-1-((4-phenoxybenzoyl)glycyl)-4-phenylpyrrolidine-2-carboxamide] it is under 100 nM.

For the molecule `C[C@@H](NC(=O)[C@@H]1C[C@@]2(CN1C(=O)CNC(=O)CCCOc1ccccc1)CC2(F)F)c1cc(C(=N)N)cs1` [Compound 105, (3S,6S)-N-((R)-1-(4-carbamimidoylthiophen-2-yl)ethyl)-1,1-difluoro-5-((4-phenoxy-butanoyl)glycyl)-5-azaspiro[2.4]heptane-6-carboxamide], the IC50 is 100 to 1000 nM.

In the case of `C[C@@]12C[C@@H]1N(C(=O)CNC(=O)c1ccc(Oc3cccnc3)cc1)[C@H](C(=O)NCc1cc(C(=N)N)cs1)C2` [Compound 94, (1S,3S,5S)-N-[(4-carbamimidoylthiophen-2-yl)methyl]-5-methyl-2-(2-{[4-(pyridin-3-yloxy)phenyl]formamido}acetyl)-2-azabicyclo[3.1.0]hexane-3-carboxamide], the IC50 was under 100 nM.

For `C[C@@]12C[C@@H]1N(C(=O)CNC(=O)c1ccc(Oc3ccccc3)cc1)[C@H](C(=O)NCc1ccc(N)nc1)C2` [Compound 5], the IC50 is 100 to 1000 nM. Take `N=C(N)c1csc(CNC(=O)[C@@H]2C[C@H](c3ccc(F)cc3)CN2C(=O)CNC(=O)CCCOc2ccccc2)c1` [Compound 159, (2S,4R)-N-((4-carbamimidoylthiophen-2-yl)methyl)-4-(4-fluorophenyl)-1-((4-phenoxybutanoyl)glycyl)pyrrolidine-2-carboxamide]: the IC50 is under 100 nM. Regarding `N=C(N)c1csc(CNC(=O)[C@@H]2C[C@](F)(CN)CN2C(=O)CNC(=O)CCCOc2ccccc2)c1` [Compound 109, (2S,4S)-4-(aminomethyl)-N-((4-carbamimidoylthiophen-2-yl)methyl)-4-fluoro-1-((4-phenoxybutanoyl)glycyl)pyrrolidine-2-carboxamide], the IC50 is under 100 nM. Take `N=C(N)c1csc([C@@H](NC(=O)[C@@H]2CC3(CN2C(=O)CNC(=O)CCCOc2ccccc2)OCCO3)c2ccccc2)c1` [Compound 217, (S)-N-((S)-(4-carbamimidoylthiophen-2-yl)(phenyl)methyl)-7-((4-phenoxybutanoyl)glycyl)-1,4-dioxa-7-azaspiro[4.4]nonane-8-carboxamide]: the IC50 is over 1000 nM.
